Assay results: patent US20220308062A1, “METHODS FOR PREDICTING DRUG RESPONSIVENESS IN SAMPLES FROM CANCER SUBJECTS” (Board of Regents, The University of Texas System, priority 2019, published 2022)

Tests used:
Assay type in all cases: cell-based, human
A549 and H2009 cells [1] = assay: Capillary Western immunoassay (WES)
Protocol: Capillary Western immunoassay. Protein lysates of A549 lung cancer cells were prepared in radioimmunoprecipitation assay buffer (Thermo Fisher Scientific). Proteins with 12-230 kDa were analyzed in the Western immunoassay (WES) Separation Module of the quantitative capillary Western immunoassay system (ProteinSimple, San Jose, Calif.). The following antibodies were used: (i) β-catenin, AXL, AKT, C-RAF, p38 MAPK, MEK1/2, P42/44 MAPK, SMAD2/3, SMAD4, and GAPDH from Cell Signaling Technology (Danvers, Mass.); (ii) p-AXL from R&D Systems (Minneapolis, Minn.); (iii) vimentin, YAP1, TAZ, CK8/18 and CK19 from Novus Biologicals (Centennial, Colo.); (iv) N-cadherin from Abcam (Cambridge); (v) E-cadherin from BD Biosciences (San Jose, Calif.). Protein expression levels were normalized with that of GAPDH.
Capillary Western immunoassay (WES). Protein lysates of A549 and H2009 cells were prepared in radio-immunoprecipitation assay buffer (Thermo Fisher Scientific). Proteins were then analyzed in 12-230 and 66-440 kDa WES separation module of quantitative capillary Western immunoassay system (Protein Simple). The following antibodies were used: 1) AXL, AKT, JNK, p38 MAPK, MEK1/2, P42/44 MAPK, and GAPDH (Cell Signaling Technology); and 2) p-AXL and YAP1 (R&D Systems). Protein expression levels were normalized with GAPDH as loading controls.
Materials and methods. Capillary Western immunoassay (WES). Protein lysates of A549 and H2009 cells were prepared in radio-immunoprecipitation assay buffer (Thermo Fisher Scientific). Proteins were then analyzed in 12-230 and 66-440 kDa WES separation module of quantitative capillary Western immunoassay system (Protein Simple). Antibodies against AXL and GAPDH were (Cell Signaling Technology). Protein expression levels were normalized with GAPDH as loading controls.

A549 and H2009 cells [2] = assay: CyTOF profiling of lung cancer cell lines
Protocol: Cytometry by time of flight mass spectrometry (CyTOF). Antibodies were conjugated according to the manufacturer's instructions (Fluidigm, South San Francisco, Calif.) or purchased in pre-conjugated forms from the supplier (Fluidigm). […] The cells were harvested and stained with cisplatin (Fluidigm) and metal-conjugated surface antibodies sequentially for viability and surface staining. After fixation and permeabilization, the intracellular staining with metal-conjugated antibodies was performed. The cells were then labeled with an iridium-containing DNA intercalator (^191Ir^+, ^193Ir^+) to identify cell events before analysis on a Helios mass cytometer (Fluidigm). Signals were bead-normalized using EQ Four Element Calibration Beads (Fluidigm). Signals of samples were normalized using CyTOF software (Version 6.7.1014, Fluidigm). The generated files underwent signal cleanup and filtering for live/dead cells using Cytobank (https://www.cytobank.org/, Cytobank Inc.) and download gated Flow Cytometry Standard (FCS) file for further analysis using Cytofkit based on PhenoGraph algorithm, which was implemented in R and freely available from the Bioconductor website (https://bioconductor.org/packages/cytofkit/). CyTOF data was visualized using t-distributed stochastic neighbor embedding (t-SNE) algorithm and plotted on a continuum of protein expression with phenotypically related cells clustered together.
Cytometry by time-of-flight (CyTOF). Antibodies were conjugated in-house according to the manufacturer's instructions or purchased in pre-conjugated forms from the supplier (Fluidigm; Table 5). Single cells from cell lines, tumors, or PBMCs were harvested and stained with cisplatin and metal-conjugated surface antibodies sequentially for viability and surface staining. After fixation and permeabilization, cells were stained with metal-conjugated antibodies. The cells were then labeled with an iridium-containing DNA intercalator (^191Ir^+ or ^193Ir^+) for identification of cell events before analysis on a Helios mass cytometer. Signals were bead-normalized using EQ Four Element Calibration Beads.
Signals of samples were normalized using CyTOF software (Version 6.7.1014, Fluidigm). The generated files underwent signal cleanup and filtering for single cells using Cytobank (https://www.cytobank.org/). The gated Flow Cytometry Standard (FCS) file were downloaded for further analysis using Cytofkit. The PhenoGraph clustering algorithm in Cytofkit was implemented in R from the Bioconductor website (https://bioconductor.org/packages/cytofkit/). […] Epithelial and mesenchymal indices were calculated based on the average Z-score of epithelial and mesenchymal markers. […]

A549 and H2009 cells [3] = assay: Western blot analysis; settings: H2009, traditional western blot (FIG. 8C)
Protocol: Western blot analysis. […] Cell lysates were harvested using RIPA buffer. The concentration of protein lysates was determined by Pierce™ BCA Protein Assay Kit (Thermo fisher). Forty micrograms of the total protein extracts were separated by NuPAGE™ 4-12% Bis-Tris Protein Gels (Thermo fisher) and transferred to PVDF membrane. The membrane was then blocked with 5% of Blotting-Grade Blocker (BioRad) in TBST and probed using primary antibodies including: 1) oncogenic pathways: JAK1, pSTAT3, STAT3, pAKT and pERK1/2 (Cell Signaling Technology; 3344S, 9131S, 9139T, 4060, 4377S); 2) cancer stemness markers: CD133 and ALDH1A1 (Cell Signaling Technology; 64326S and 54135S); and 3) EMT markers: Vimentin (Novus; NBP1-92687), N-cadherin, EpCAM (Abcam; ab71916) and CK8/18 (Novus; NBP2-44930); 4) loading control: GAPDH (Cell Signaling Technology; 2118S). Membrane was incubated in HRP-linked secondary antibodies following dilution with TBST (1:5000) at room temperature for one hour. Blots were developed using Western Lightning Plus-ECL Chemiluminescent Reagents (Perkin Elmer, Waltham, Mass.) and Syngene G:BOX Imaging System.

Structure (SMILES): CN1CCN(Cc2ccc(Nc3ncc(Cl)c(Nc4ccccc4S(=O)(=O)N(C)C)n3)cc2)CC1 [TP-0903]
- AXL level (WES) (A549 and H2009 cells [1]; A549, 40 nmol/L): down-regulated
- cytokeratin 19 (CK19) level (A549 and H2009 cells [1]; A549 and H2009, 40 nM): noticeable increase
- vimentin level (A549 and H2009 cells [1]; A549 and H2009, 40 nM): minor decrease
- protein levels of AXL, phosphorylated AXL, SMAD2/3, SMAD4, YAP1, and TAZ (A549 and H2009 cells [1]; A549 and H2009, 40 nmol/L): reduced
- phosphorylated STAT3 (pSTAT3) levels (CyTOF) (A549 and H2009 cells [2]; A549, 40 nmol/L): dramatically increased
- SMAD4 (CyTOF) (A549 and H2009 cells [2]; A549 subpopulations #6-8, 40 nmol/L): suppressed
- JAK1-pSTAT3 expression (CyTOF) (A549 and H2009 cells [2]; H2009 subpopulations #15 and 16 after treatment): amplified
- CD133 (CyTOF) (A549 and H2009 cells [2]; cell lines, 40 nmol/L): elevated
- SLUG transcription factor levels (A549 and H2009 cells [3]): significantly decreased
